Test results taken from patent US12285407B2, “Bis-indolylmethane derivatives and uses thereof” (The University of The West Indies, priority 2018, dated 2025).
Like-named read-outs stand apart in the source and are kept apart here.

How the values were obtained:
[1] = tested on: clinical antibiotic resistant isolates of Enterococcus faecium; assay: Checkerboard resistance breaking by SP-BIM 13; format: cell-based; conditions: for FIC compound / Rescue concentration of SP-BIM 13: SP-BIM 13 with the labelled antibiotic; for Interpretation / Σ FIC: antibiotic + SP-BIM 13; for MIC of antibiotic only: antibiotic alone; for FIC antibiotic: combination with SP-BIM 13; for MIC of antibiotic in combination: with SP-BIM 13 at rescue concentration
[2] = tested on: clinical strains of Enterococcus faecium; assay: Kirby Bauer disc diffusion susceptibility profile; format: cell-based; conditions: for Zone of clearance: 35° C., 24 hours, average n=3; for Interpretive standard (resistant/susceptible): zones vs EUCAST breakpoints (Table 31)
[3] = tested on: Escherichia coli; assay: Checkerboard synergy (FICI) of antibiotics with SP-BIM; parameters: MIC SP-BIM 13 only / MIC in combination: Antibiotic: unit not given beside the values; conditions: for MIC: 24 h
[4] = tested on: Escherichia coli; assay: microbe, parasite or virus in culture; format: cell-based; conditions: antibiotic alone, Table 6, read-out: MIC of antibiotic, No compound
[5] = tested on: Streptococcus pneumoniae; assay: Checkerboard synergy (FICI) of antibiotics with SP-BIM; format: cell-based; conditions: for MIC: 24 h, antibiotic alone, read-out: MIC antibiotic only
[6] = tested on: Bacillus cereus; assay: as above; format: cell-based; conditions: for MIC: 24 h, antibiotic alone, read-out: MIC antibiotic only
[7] = tested on: Klebsiella pneumoniae; assay: as above; format: cell-based; conditions: for MIC: 24 h, antibiotic alone, read-out: MIC antibiotic only
[8] = tested on: Staphylococcus aureus; assay: as above; format: cell-based; conditions: Staphylococcus aureus, Staphylococcus aureus; for MIC: 24 h, antibiotic alone, read-out: MIC antibiotic only
[9] = tested on: Candida albicans; assay: as above; parameters: MIC SP-BIM 13 only / MIC in combination: Antibiotic / MIC antibiotic only: unit not given beside the values
[10] = tested on: Streptococcus pneumoniae; assay: Adjuvant broth microdilution (antibiotic MIC with SP-BIM at 50 μg/mL); format: cell-based; conditions: Streptococcus pneumoniae; Streptococcus pneumonia; antibiotic alone; Table 5; read-out: MIC of antibiotic, No compound
[11] = tested on: clinical strains of MRSA; assay: Kirby Bauer disc diffusion susceptibility profile; format: cell-based, Staphylococcus aureus; conditions: for Zone of clearance: 35° C., 24 hours, average n=3; for Interpretive standard (resistant/susceptible): zones vs EUCAST breakpoints (Table 30)
[12] = MIC of the antibiotic in combination with SP-BIM 13
[13] = SP-BIM 9 in combination with the labelled antibiotic
[14] = SP-BIM 13 in combination with the labelled antibiotic
[15] = antibiotic in combination with SP-BIM 9
[16] = Streptococcus pneumonia (title: Streptococcus pyogenes), antibiotic + SP-BIM 9
[17] = Streptococcus pneumoniae, antibiotic + SP-BIM 13
[18] = antibiotic in combination with SP-BIM 13

## [H]/N=C(/N)N[C@H]1[C@H](O)[C@@H](O)[C@H](O[C@@H]2O[C@@H](C)[C@](O)(C=O)[C@H]2O[C@@H]2O[C@@H](CO)[C@H](O)[C@@H](O)[C@@H]2NC)[C@@H](N/C(N)=N\[H])[C@@H]1O [Streptomycin, streptomycin]
[1]; E. faecium strain 21955
  FIC compound: 0252
  Rescue concentration of SP-BIM 13: 63 µg/mL
  Interpretation: Synergy (Synergy: FICI≤0.5)
  Σ FIC: <0.26
  MIC of antibiotic only: 125 mg/L
  FIC antibiotic: 0.004
  MIC of antibiotic in combination: 0.5 mg/L
[1]; E. faecium strain 23668
  FIC compound: 0.064
  Rescue concentration of SP-BIM 13: 16 µg/mL
  Interpretation: Synergy (Synergy: FICI≤0.5)
  Σ FIC: <0.08
  MIC of antibiotic only: 63 mg/L
  FIC antibiotic: 0.016
  MIC of antibiotic in combination: 1 mg/L
[1]; E. faecium strain RC63
  FIC compound: 0.032
  Rescue concentration of SP-BIM 13: 8 µg/mL
  Interpretation: Synergy (Synergy: FICI≤0.5)
  Σ FIC: <0.04
  MIC of antibiotic only: 125 mg/L
  FIC antibiotic: 0.008
  MIC of antibiotic in combination: 1 mg/L
[2]; E. faecium strain 15134
  Zone of clearance: 20 mm
  Interpretive standard (resistant/susceptible): S
[2]; E. faecium strain 21024
  Zone of clearance: 17 mm
  Interpretive standard (resistant/susceptible): S
[2]; E. faecium strain 21955
  Zone of clearance: 13 mm
  Interpretive standard (resistant/susceptible): R
[2]; E. faecium strain 22003
  Zone of clearance: 18 mm
  Interpretive standard (resistant/susceptible): S
[2]; E. faecium strain 22870
  Zone of clearance: 29 mm
  Interpretive standard (resistant/susceptible): S
[2]; E. faecium strain 23227
  Zone of clearance: 25 mm
  Interpretive standard (resistant/susceptible): S
[2]; E. faecium strain 23230
  Zone of clearance: 14 mm
  Interpretive standard (resistant/susceptible): S
[2]; E. faecium strain 23668
  Zone of clearance: 13 mm
  Interpretive standard (resistant/susceptible): R
[2]; E. faecium strain 24169
  Zone of clearance: 19 mm
  Interpretive standard (resistant/susceptible): S
[2]; E. faecium strain RC63
  Zone of clearance: 5 mm
  Interpretive standard (resistant/susceptible): R
[3]; read-out: MIC antibiotic only, Escherichia coli, antibiotic alone
  MIC: 125 mg/L
[3]; read-out: MIC antibiotic only, Escherichia coli, antibiotic alone, SP-BIM 9 checkerboard
  MIC: 125 mg/L
[3]; [12]
  MIC in combination: Antibiotic: 4
[3]; [13]
  FIC of SP-BIM 9: 1
[3]; [14]
  FIC of SP-BIM 13: 0.3
[3]; antibiotic + SP-BIM 9
  Interpretation: Indifferent (Indifferent: FICI>1.0-4.0)
  Σ FIC: <1.1
[3]; antibiotic + SP-BIM 13
  Interpretation: Synergy (Synergy: FICI≤0.5)
  Σ FIC: <0.3
[3]; [15]
  MIC in combination, Antibiotic: 8 mg/L
[3]; combination with SP-BIM 13
  FIC of antibiotic: 0.0
[3]; in combination with SP-BIM 9
  FIC of antibiotic: 0.064
[4]
  MIC: 8 mg/L
[5]; Streptococcus pneumonia (title: Streptococcus pyogenes), SP-BIM 9 in combination with the labelled antibiotic
  FIC of SP-BIM 9: 0.06
[5]; [16]
  Interpretation: Synergy (Synergy: FICI≤0.5)
  Σ FIC: <0.07
[5]; Streptococcus pneumonia (title: Streptococcus pyogenes), antibiotic in combination with SP-BIM 9
  MIC in combination, Antibiotic: 0.2 mg/L
[5]; Streptococcus pneumonia (title: Streptococcus pyogenes), in combination with SP-BIM 9
  FIC of antibiotic: 0.01
[5]; Streptococcus pneumoniae, Streptococcus pneumonia (title: Streptococcus pyogenes), SP-BIM 9 checkerboard
  MIC: 32 mg/L
[5]; Streptococcus pneumoniae, Streptococcus pneumoniae, SP-BIM 13 checkerboard
  MIC: 32 mg/L
[5]; Streptococcus pneumoniae, SP-BIM 13 in combination with the labelled antibiotic
  FIC of SP-BIM 13: 0.3
[5]; [17]
  Interpretation: Synergy (Synergy: FICI≤0.5)
  Σ FIC: <0.3
[5]; Streptococcus pneumoniae, antibiotic in combination with SP-BIM 13
  MIC in combination, Antibiotic: 1 mg/L
[5]; Streptococcus pneumoniae, in combination with SP-BIM 13
  FIC of antibiotic: 0.0
[6]; SP-BIM 9 checkerboard
  MIC: 4 mg/L
[6]; SP-BIM 13 checkerboard
  MIC: 4 mg/L
[6]; SP-BIM 9 concentration in combination with the labelled antibiotic
  MIC in combination, SP-BIM 9: >250 mg/L
[6]; [13]
  FIC of SP-BIM 9: 1
[6]; [14]
  FIC of SP-BIM 13: 0.1
[6]; antibiotic + SP-BIM 9
  Interpretation: Synergy (Synergy: FICI≤0.5)
  Σ FIC: <1.1
[6]; antibiotic + SP-BIM 13
  Interpretation: Synergy (Synergy: FICI≤0.5)
  Σ FIC: <0.3
[6]; [15]
  MIC in combination, Antibiotic: 0.5 mg/L
[6]; [18]
  MIC in combination, Antibiotic: 0.5 mg/L
[6]; in combination with SP-BIM 9
  FIC of antibiotic: 0.125
[6]; in combination with SP-BIM 13
  FIC of antibiotic: 0.13
[7]; SP-BIM 9 checkerboard
  MIC: 125 mg/L
[7]; SP-BIM 13 checkerboard
  MIC: 125 mg/L
[7]; [13]
  FIC of SP-BIM 9: 0.5
[7]; [14]
  FIC of SP-BIM 13: 0.0
[7]; antibiotic + SP-BIM 9
  Interpretation: Additive (Additive: FICI>0.5-1.0)
  Σ FIC: <0.6
[7]; antibiotic + SP-BIM 13
  Interpretation: Synergy (Synergy: FICI≤0.5)
  Σ FIC: <0.3
[7]; [15]
  MIC in combination, Antibiotic: 16 mg/L
[7]; [18]
  MIC in combination, Antibiotic: 32 mg/L
[7]; in combination with SP-BIM 9
  FIC of antibiotic: 0.128
[7]; in combination with SP-BIM 13
  FIC of antibiotic: 0.3
[8]; SP-BIM 9 checkerboard
  MIC: 8 mg/L
[8]; SP-BIM 13 checkerboard
  MIC: 8 mg/L
[8]; [13]
  FIC of SP-BIM 9: 0.25
[8]; [14]
  FIC of SP-BIM 13: 0.3
[8]; antibiotic + SP-BIM 9
  Interpretation: Synergy (Synergy: FICI≤0.5)
  Σ FIC: <0.38
[8]; antibiotic + SP-BIM 13
  Interpretation: Synergy (Synergy: FICI≤0.5)
  Σ FIC: 0.3
[8]; [15]
  MIC in combination, Antibiotic: 1.0 mg/L
[8]; [18]
  MIC in combination, Antibiotic: 0.25 mg/L
[8]; in combination with SP-BIM 9
  FIC of antibiotic: 0.13
[8]; in combination with SP-BIM 13
  FIC of antibiotic: 0.0
[9]; 24 h, read-out: MIC antibiotic only
  MIC: > 250 mg/L
[9]; [12]
  MIC in combination: Antibiotic: 16
[9]; [14]
  FIC of SP-BIM 13: 0.1
[9]; antibiotic + SP-BIM 13
  Interpretation: Synergy (Synergy: FICI≤0.5)
  Σ FIC: <0.2
[9]; combination with SP-BIM 13
  FIC of antibiotic: 0.1
[10]
  MIC: 16 mg/L
[11]; MRSA strain 1594
  Zone of clearance: 11.5 mm
  Interpretive standard (resistant/susceptible): R
[11]; MRSA strain 1621
  Zone of clearance: 17.0 mm
  Interpretive standard (resistant/susceptible): S
[11]; MRSA strain 5455
  Zone of clearance: 17.0 mm
  Interpretive standard (resistant/susceptible): S
[11]; MRSA strain 5872
  Zone of clearance: 8.0 mm
  Interpretive standard (resistant/susceptible): R
[11]; MRSA strain 7153
  Zone of clearance: 16.0 mm
  Interpretive standard (resistant/susceptible): I
[11]; MRSA strain 7172
  Zone of clearance: 18.5 mm
  Interpretive standard (resistant/susceptible): S
[11]; MRSA strain 7698
  Zone of clearance: 12.0 mm
  Interpretive standard (resistant/susceptible): R
[11]; MRSA strain 10132
  Zone of clearance: 8.5 mm
  Interpretive standard (resistant/susceptible): R
